Measured values from patent US10561735B2, “Solid formulations of liquid biologically active agents” (Paladin Labs Inc., priority 2004, dated 2020).
≈ marks a conversion by molar mass, not a printed value.

Experiments:
[1] = Reconstitution of lyophilized cake: time, appearance, visual stability (no precipitation or phase separation); format: physicochemical; conditions: PVP-PLA 90 mg/mL, 75 mM sodium phosphate buffer pH 7.4
Method: PVP-PDLLA (POLYMER 1 and POLYMER 2) samples were dissolved in mixtures of water and various amounts of tert-butyl alcohol (TBA). Propofol is then added to the PVP-PDLLA solution. Water is then added to the TBA/PVP-PDLLA/propofol solution to the desired final volume. Final TBA concentration in these solutions was 10-30%. Drug loading levels, % w/w of propofol/(propofol PVP-PDLLA), were also varied from 5, 7, 8, 10, 12, 15 and 20%. Solutions were then frozen in a dry ice/acetone bath and lyophilized for at least 24 hours.
PVP-PDLLA (POLYMER 1) is dissolved directly in water at concentrations between 100 to 350 mg/mL. Propofol is added to the PVP-PDLLA solution and mixed until a homogenous solution is obtained. The solution is then diluted to a concentration of 1% w/v of propofol. 7, 10 and 12% w/w drug loading levels were tested. All solutions were then filtered using 0.2 μm sterile filters and frozen in acetone/dry ice bath or in −80° C. freezer for at least 4 hours before being lyophilized for 48 hours. Solid lyophilized cakes of 7, 10 and 12% w/w were reconstituted by adding water for injection.
PVP-PDLLA (lot # POLYMER 1, POLYMER 2, POLYMER 3, POLYMER 4 and POLYMER 5) is dissolved directly in 100 mM sodium phosphate buffer, pH 7.4, at concentrations between 100 to 350 mg/mL. Propofol is added to the PVP-PDLLA solution and mixed until a homogenous solution is obtained. […]

[2] = room temperature; cited from earlier work
humans or animals = conditions: cited from earlier work

SMILES	appearance after reconstitution by addition of water [1]	aqueous solubility [2] [µg/mL]	half life (humans or animals; in vivo) [min]	time to hypnosis from the start of an administration (humans or animals; intravenous injection of a therapeutic dose) [s]
Cc1ccc2ccccc2n1 [quinaldine]	Clear solutions	–	–	–
CC(C)c1cccc(C(C)C)c1O [Propofol, 2,6-bis-(1-methylethyl)phenol]	–	~154 (≈ 864 µM)	10 to 15	≤ 40
OCCOc1ccccc1 [2-phenoxyethanol]	Clear solutions	–	–	–
